{
  "source": "patent US20110171166A1",
  "about": "“POLYMER CONJUGATES OF O[…]” (Nektar Therapeutics, priority 2008, published 2011)",
  "origin": "cited, not measured here",
  "key": {"primary adipocytes": {"system": "primary adipocytes", "conditions": "white and brown respectively"}, "[1]": {"system": "isolated pancreatic islets, a β cell line"}, "WT mice": {"system": "WT mice", "conditions": "long-term treatment; gold thioglucose-induced hyperphagia and high-fat diet"}},
  "data": [
    {"substance": "osteocalcin", "values": [
      {"measurement": "amount affecting adiponectin and Pgc1α expression in white and brown adipocytes", "setting": "primary adipocytes", "result": "nanomolar amounts"},
      {"measurement": "amount sufficient to regulate the expression of the insulin genes and β cell proliferation markers", "setting": "[1]", "result": "picomolar amounts"},
      {"measurement": "effect on body mass and glucose metabolism", "setting": "WT mice", "result": "significantly weaken the deleterious effect on body mass and glucose metabolism"}
    ]}
  ]
}
